We go through 24 compounds from patent publication US20230399312A1, “SUBSTITUTED PYRIMIDINES AND METHODS OF USE” (THERAVANCE BIOPHARMA R&D IP, LLC, priority 2020, published 2023).

The target in assay [1] is T1, recombinant human ALK5 (TGF-βR1) protein (Homo sapiens, UniProt P36897).
T1 construct: purchased Life Technologies PR9075A
T1 sequence (P36897 34-503): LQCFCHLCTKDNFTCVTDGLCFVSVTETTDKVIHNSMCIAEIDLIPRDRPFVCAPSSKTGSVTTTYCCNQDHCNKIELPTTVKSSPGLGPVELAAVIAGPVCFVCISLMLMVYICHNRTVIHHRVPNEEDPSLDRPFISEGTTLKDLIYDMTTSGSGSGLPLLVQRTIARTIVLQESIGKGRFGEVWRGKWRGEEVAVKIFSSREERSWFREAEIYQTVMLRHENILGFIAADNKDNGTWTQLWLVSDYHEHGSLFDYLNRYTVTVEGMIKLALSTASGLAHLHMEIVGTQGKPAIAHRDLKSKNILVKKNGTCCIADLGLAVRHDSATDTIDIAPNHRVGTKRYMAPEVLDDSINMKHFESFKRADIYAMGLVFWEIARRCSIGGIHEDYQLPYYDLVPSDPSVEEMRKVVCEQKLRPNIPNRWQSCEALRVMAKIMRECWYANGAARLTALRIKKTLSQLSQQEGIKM
The assay can be described thus: Biochemical ALK5 (TGF-βR1) assay to measure pKi (LANCE Ultra ULight kinase assay). As to conditions: apparent pKi, converted from pIC50 by Cheng-Prusoff. The procedure, abridged:
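Dose-response series of each compound were preincubated with the kinase for 60 minutes at room temperature. Phosphorylation proceeded for 60 minutes at 37 °C after ATP addition, was quenched with EDTA, and was detected with a europium anti-phospho-Thr1342 antibody by TR-FRET; pKi was calculated from pIC50.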
For orientation: TR-FRET usually uses a lanthanide donor and a delayed reading to cut background.

The test system of assay [2] is TGF-β-stimulated SMAD3 phosphorylation in BEAS-2B cells. As to the kind of experiment: Cellular ALK5 potency assay, inhibition of TGF-β stimulated pSMAD3 formation in BEAS-2B cells. The class given is cell-based. As to conditions: Homo sapiens, pSMAD3, TGF-β 10 ng/mL, read-out: BEAS2B pIC50 (converted). In a few lines: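 Human lung epithelial BEAS-2B cells were preincubated 1 h at 37 °C with compound in HBSS/HEPES/1% BSA, then stimulated 30 min with 10 ng/mL TGF-β. pSMAD3 in lysates was quantified by AlphaLISA relative to untreated stimulated cells; reported as pIC50.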

`Cc1cccc(-c2nccc(Nc3ccnc(Nc4nc(C5=CCNC5)cs4)n3)n2)n1` [Compound 626, N2-[4-(2,5-dihydro-1H-pyrrol-3-yl)thiazol-2-yl]-N4-[2-(6-methyl-2-pyridyl)pyrimidin-4-yl]pyrimidine-2,4-diamine]: the Ki in assay [1] is 0.0398 to 0.316 nM. Moreover, the IC50 in assay [2] was 25.1 to 158 nM.

As for `Cc1cccc(-c2nccc(Nc3ccnc(Nc4csc(C(=O)OCCN5C[C@@H](C)N[C@@H](C)C5)c4)n3)n2)n1` [Compound 627, 2-[(3S,5R)-3,5-dimethylpiperazin-1-yl]ethyl 4-[[4-[[2-(6-methyl-2-pyridyl)pyrimidin-4-yl]amino]pyrimidin-2-yl]amino]thiophene-2-carboxylate], the Ki in assay [1] was 0.0398 to 0.316 nM. Also, the IC50 in assay [2] was 25.1 to 158 nM.

For `Cc1cccc(-c2nccc(Nc3ccnc(Nc4ccc(C(=O)OC[C@H]5CCCCN5)nc4)n3)n2)n1` [Compound 628, [(2R)-2-piperidyl]methyl 5-[[4-[[2-(6-methyl-2-pyridyl)pyrimidin-4-yl]amino]pyrimidin-2-yl]amino]pyridine-2-carboxylate], the Ki in assay [1] was 0.0398 to 0.316 nM. For the same compound, in assay [2], the IC50 is 25.1 to 158 nM.

As to `Cc1cccc(-c2nccc(Nc3ccnc(Nc4nc(CN5CC(C(=O)O)C5)cs4)n3)n2)n1` [Compound 629, 1-[[2-[[4-[[2-(6-methyl-2-pyridyl)pyrimidin-4-yl]amino]pyrimidin-2-yl]amino]thiazol-4-yl]methyl]azetidine-3-carboxylic acid], in assay [1], the Ki is 0.0398 to 0.316 nM. Moreover, the IC50 in assay [2] is 1580 to 10000 nM.

`Cc1cccc(-c2nccc(Nc3ccnc(Nc4ncc(C(=O)OC[C@@H]5CCNC5)s4)n3)n2)n1` [Compound 630, [(3R)-pyrrolidin-3-yl]methyl 2-[[4-[[2-(6-methyl-2-pyridyl)pyrimidin-4-yl]amino]pyrimidin-2-yl]amino]thiazole-5-carboxylate]: the Ki in assay [1] is 3.98 to 31.6 nM. Also, the IC50 in assay [2] is 200 to 1260 nM.

Regarding `Cc1cccc(-c2nccc(Nc3ccnc(Nc4csc(C(=O)O[C@H]5C[C@@H](N)C5)c4)n3)n2)n1` [Compound 631, (3-aminocyclobutyl) 4-[[4-[[2-(6-methyl-2-pyridyl)pyrimidin-4-yl]amino]pyrimidin-2-yl]amino]thiophene-2-carboxylate], the Ki in assay [1] is 0.0398 to 0.316 nM. Also, the IC50 in assay [2] was 25.1 to 158 nM.

Take `Cc1cccc(-c2nccc(Nc3ccnc(Nc4cc(C(=O)O[C@H]5CCNC5)ccn4)n3)n2)n1` [Compound 632, [(3S)-pyrrolidin-3-yl] 2-[[4-[[2-(6-methyl-2-pyridyl)pyrimidin-4-yl]amino]pyrimidin-2-yl]amino]pyridine-4-carboxylate]: the Ki in assay [1] was 3.98 to 31.6 nM. Also, the IC50 in assay [2] was 25.1 to 158 nM.

On to `Cc1cccc(-c2nccc(Nc3ccnc(Nc4cc(C(=O)OC5CCNCC5)ccn4)n3)n2)n1` [Compound 633, 4-piperidyl 2-[[4-[[2-(6-methyl-2-pyridyl)pyrimidin-4-yl]amino]pyrimidin-2-yl]amino]pyridine-4-carboxylate], for which the Ki in assay [1] was 3.98 to 31.6 nM. Also, the IC50 in assay [2] is 200 to 1260 nM.

On to `Cc1cccc(-c2nccc(Nc3ccnc(Nc4ccc(C(=O)OC5CCNCC5)cn4)n3)n2)n1` [Compound 634, 4-piperidyl 6-[[4-[[2-(6-methyl-2-pyridyl)pyrimidin-4-yl]amino]pyrimidin-2-yl]amino]pyridine-3-carboxylate], for which the Ki in assay [1] is 3.98 to 31.6 nM. For the same compound, the IC50 in assay [2] is 25.1 to 158 nM.

Take `Cc1cccc(-c2nccc(Nc3ccnc(Nc4csc(C(=O)OC[C@@H]5CCC[C@@H](N)C5)c4)n3)n2)n1` [Compound 635, [(1R,3R)-3-aminocyclohexyl]methyl 4-[[4-[[2-(6-methyl-2-pyridyl)pyrimidin-4-yl]amino]pyrimidin-2-yl]amino]thiophene-2-carboxylate]: the Ki in assay [1] is 0.0398 to 0.316 nM. In addition, the IC50 in assay [2] is 25.1 to 158 nM.

With `Cc1cccc(-c2nccc(Nc3ccnc(Nc4cc(C(=O)O)ccn4)n3)n2)n1` [Compound 636, 2-[[4-[[2-(6-methyl-2-pyridyl)pyrimidin-4-yl]amino]pyrimidin-2-yl]amino]pyridine-4-carboxylic acid], the Ki in assay [1] was 3.98 to 31.6 nM. Moreover, in assay [2], the IC50 was 1580 to 10000 nM.

`Cc1cccc(-c2nccc(Nc3ccnc(Nc4csc(C(=O)OC[C@@H]5CCCN5)c4)n3)n2)n1` [Compound 637, [(2S)-pyrrolidin-2-yl]methyl 4-[[4-[[2-(6-methyl-2-pyridyl)pyrimidin-4-yl]amino]pyrimidin-2-yl]amino]thiophene-2-carboxylate]: in assay [1], the Ki is 0.0398 to 0.316 nM. In addition, the IC50 in assay [2] was 25.1 to 158 nM.

Regarding `Cc1cccc(-c2nccc(Nc3ccnc(Nc4csc(C(=O)O[C@H]5C[C@H](N)C5)c4)n3)n2)n1` [Compound 638, (3-aminocyclobutyl) 4-[[4-[[2-(6-methyl-2-pyridyl)pyrimidin-4-yl]amino]pyrimidin-2-yl]amino]thiophene-2-carboxylate], the Ki in assay [1] was 0.0398 to 0.316 nM. Further, the IC50 in assay [2] was 25.1 to 158 nM.

In the case of `Cc1cccc(-c2nccc(Nc3ccnc(Nc4csc(C(=O)OC[C@@H]5CCCCN5)c4)n3)n2)n1` [Compound 639, [(2S)-2-piperidyl]methyl 4-[[4-[[2-(6-methyl-2-pyridyl)pyrimidin-4-yl]amino]pyrimidin-2-yl]amino]thiophene-2-carboxylate], in assay [1], the Ki is 0.0398 to 0.316 nM. In addition, in assay [2], the IC50 is 25.1 to 158 nM.

`Cc1cccc(-c2nccc(Nc3ccnc(Nc4cncc(C(=O)OC[C@H]5CCCCN5)c4)n3)n2)n1` [Compound 641, [(2R)-2-piperidyl]methyl 5-[[4-[[2-(6-methyl-2-pyridyl)pyrimidin-4-yl]amino]pyrimidin-2-yl]amino]pyridine-3-carboxylate]: the Ki in assay [1] is 0.398 to 3.16 nM. Moreover, the IC50 in assay [2] was 25.1 to 158 nM.

Regarding `Cc1cccc(-c2nccc(Nc3ccnc(Nc4cncc(CN5CC(C(=O)O[C@@H]6CCNC6)C5)c4)n3)n2)n1` [Compound 642, [(3R)-pyrrolidin-3-yl] 1-[[5-[[4-[[2-(6-methyl-2-pyridyl)pyrimidin-4-yl]amino]pyrimidin-2-yl]amino]-3-pyridyl]methyl]azetidine-3-carboxylate], in assay [1], the Ki is 0.0398 to 0.316 nM. Further, the IC50 in assay [2] was 25.1 to 158 nM.

Consider `Cc1cccc(-c2cccc(Nc3ccnc(Nc4ccc(N5CCOCC5)cc4)n3)n2)n1` [Compound 1000, N4-[6-(6-methyl-2-pyridyl)-2-pyridyl]-N2-(4-morpholinophenyl)pyrimidine-2,4-diamine], for which the Ki in assay [1] is 3.98 to 31.6 nM. Further, the IC50 in assay [2] was 25.1 to 158 nM.

On to `Cc1cccc(-c2cc(Nc3ccnc(Nc4ccc(N5CCOCC5)cc4)n3)c3cc[nH]c3n2)n1` [Compound 1001, N4-[6-(6-methyl-2-pyridyl)-1H-pyrrolo[2,3-b]pyridin-4-yl]-N2-(4-morpholinophenyl)pyrimidine-2,4-diamine], for which the Ki in assay [1] was 0.398 to 3.16 nM. In addition, the IC50 in assay [2] was 200 to 1260 nM.

In the case of `Cc1cccc(-c2nc(Nc3ccnc(Nc4ccc(N5CCOCC5)cc4)n3)ccc2C#N)n1` [Compound 1003, 2-(6-methyl-2-pyridyl)-6-[[2-(4-morpholinoanilino)pyrimidin-4-yl]amino]pyridine-3-carbonitrile], in assay [1], the Ki is 3.98 to 31.6 nM. Further, the IC50 in assay [2] was 200 to 1260 nM.

In the case of `CCNC(=O)Cc1cc(Nc2ccnc(Nc3ccc(N4CCNCC4)cc3)n2)nc(-c2cccc(C)n2)n1` [Compound 1006, N-ethyl-2-[2-(6-methyl-2-pyridyl)-6-[[2-(4-piperazin-1-ylanilino)pyrimidin-4-yl]amino]pyrimidin-4-yl] acetamide], the Ki in assay [1] is 0.398 to 3.16 nM. The IC50 in assay [2] is 200 to 1260 nM.

With `Cc1cccc(-c2nc(CC(=O)NCC(C)C)cc(Nc3ccnc(Nc4ccc(N5CCNCC5)cc4)n3)n2)n1` [Compound 1009, N-isobutyl-2-[2-(6-methyl-2-pyridyl)-6-[[2-(4-piperazin-1-ylanilino)pyrimidin-4-yl]amino]pyrimidin-4-yl] acetamide], in assay [1], the Ki was 0.398 to 3.16 nM. In addition, the IC50 in assay [2] is 200 to 1260 nM.

In the case of `COC(=O)c1cc(Nc2ccnc(Nc3ccc(N4CCN(C)CC4)cc3)n2)nc(-c2cccc(C)n2)n1` [Compound 1010, methyl 6-[[2-[4-(4-methylpiperazin-1-yl)anilino]pyrimidin-4-yl]amino]-2-(6-methyl-2-pyridyl)pyrimidine-4-carboxylate], the Ki in assay [1] is 0.0398 to 0.316 nM. For the same compound, in assay [2], the IC50 is 200 to 1260 nM.

On to `Cc1cccc(-c2nc(Nc3ccnc(Nc4ccc(N5CCNCC5)cc4)n3)cc(-c3c[nH]nn3)n2)n1` [Compound 1012, N4-[2-(6-methyl-2-pyridyl)-6-(1H-triazol-4-yl)pyrimidin-4-yl]-N2-(4-piperazin-1-ylphenyl)pyrimidine-2,4-diamine], for which the Ki in assay [1] is 0.0398 to 0.316 nM. In addition, in assay [2], the IC50 is 1580 to 10000 nM.

For the compound `Fc1ccc(Cl)cc1-c1ncc(C2CC2)c(Nc2ccnc(Nc3ccc(N4CCNCC4)cc3)n2)n1` [Compound 1013, N4-[2-(5-chloro-2-fluoro-phenyl)-5-cyclopropyl-pyrimidin-4-yl]-N2-(4-piperazin-1-ylphenyl)pyrimidine-2,4-diamine], the Ki in assay [1] was 0.0398 to 0.316 nM. The IC50 in assay [2] is 200 to 1260 nM.
